One series has as its system Rattus norvegicus. The note with it: for LD50: mortality.
Another series deals with Colinus virginianus. The settings on record: for LD50: acute, oral, mortality; for NOEL: reproduction developmental.
For the next series, the system named is Oncorhynchus mykiss. The settings on record: chronic/long-term; duration: 28 days; growth.
A further series relates to Leuciscus idus. The settings on record: acute; duration: 96 hours; mortality.
A further series deals with Daphnia magna. The note with it: chronic/long-term; duration: 21 days; reproduction.
The subject of a further series is Plant. The settings on record: not reported; seedling emergence.
For a further series, the system named is Apis mellifera. The settings on record: acute; duration: 48 hours; dermal; mortality.
A further series relates to Bibionidae. The settings on record: chronic/long-term; duration: 28 days.
For a further series, the system named is Typhlodromus pyri. As to the kind of experiment: LR50; higher = less toxic. The settings on record: acute; duration: 14 days; mortality.
The subject of another series is Aphidius rhopalosiphi. As to the kind of experiment: LR50; higher = less toxic. The note with it: acute; duration: 48 hours; mortality.

The results in this text go back to EPA's ToxValDB 9.5 (doi:10.2903/j.efsa.2008.177r).

In brackets after ≈: the same amount, converted by molar mass.

With `NC(Cc1ncn[nH]1)C(=O)O` (centres undefined) [1,2,4-Triazole-3-alanine], the LD50 is more than 5000 mg/kg-day in the series on Rattus norvegicus (acute, oral); 1310 mg/kg-day in the series with Colinus virginianus (diet); more than 5000 mg/kg-day in the series with Colinus virginianus.
As to `c1nc[nH]n1` [1H-1,2,4-Triazole], the LD50 in the series on Rattus norvegicus (acute, oral) stood at 1650 mg/kg-day.
The compound `CC(C)(C)C(=O)C(Oc1ccc(Cl)cc1)n1cncn1` (centres undefined) [Triadimefon] yielded an NOEL in the series on Colinus virginianus of 43.5 mg/kg-day.
With `CC(C)(C)C(O)C(Oc1ccc(Cl)cc1)n1cncn1` (centres undefined) [Triadimenol], the NOEC in the series with Oncorhynchus mykiss was 3.13 mg/L; in the series on Daphnia magna, 0.1 mg/L; with Bibionidae, 0.1 mg/L; with Tagia sp. (chronic/long-term) it was 100 mg/kg. For the same compound, the LC50 came out at 17.4 µg/mL (≈ 58.8 µM) in the series with Leuciscus idus and 781 mg/kg in the series with Tagia sp. (acute, mortality). The LD50 with Rattus norvegicus (acute, oral, M) is 689 mg/kg-day; in the series on Apis mellifera it was more than 200 µg/piece; with Colinus virginianus (diet), more than 705 mg/kg-day; in the series with Colinus virginianus, more than 2000 mg/kg-day. Also, the NOAEL with Rattus norvegicus (acute, oral, clinical signs) was 2 mg/kg-day; with Rattus norvegicus (chronic, duration: 2 years, organ weight), 5 mg/kg-day; in the series on Rattus norvegicus (reproduction developmental, body weight) it was 6 mg/kg-day; in the series on Rattus norvegicus (subchronic, clinical signs), 3.4 mg/kg-day. Further, the NOEL in the series on Rattus norvegicus (reproduction developmental, M, growth) came to 8.88 mg/kg-day; in the series with Colinus virginianus it was 7.5 mg/kg-day. The same compound displayed an LEL with Plant of 125 g/ha. In addition, the LR50 in the series on Typhlodromus pyri and with Aphidius rhopalosiphi was more than 1250 g/ha throughout.
